Key:
[1] = test system: differentiated human podocytes; experiment: RNA sequencing and enrichment analysis of BT503-treated podocytes; type: cell-based; settings: vs DMSO in the setting of LPS treatment
From the text: RNA sequencing data was processed as previously described (Z. Wang, A. Ma'ayan, (2016) F1000Res 5, 1574). Briefly, sequencing reads were first aligned to the human genome (version hg38) using Spliced Transcripts Alignment to a Reference (STAR 2.4.1c) (A. Dobin et al., (2013) Bioinformatics 29, 15-21). Aligned reads were then quantified to the transcriptome (UCSC hg38 annotation) at the gene level using featureCounts (v1.4.6) (Y. Liao, G. K. Smyth, W. Shi, (2014) Bioinformatics 30, 923-930). Read counts were normalized to count per million (CPM), and differentially expressed genes were identified using BioJupies (A. Lachmann et al., (2018) Nat Commun 9, 1366). Enrichment analyses of the differentially expressed genes were performed with Enrichr (33, 66) with WikiPathways (D. N. Slenter et al., (2018) Nucleic Acids Res 46, D661-d667) and KEGG (M. Kanehisa, S. Goto, (2000) Nucleic Acids Res 28, 27-30) databases. Normalized read counts were used to create matrix visualized heat maps on Morpheus by Broad Institute (https://software.broadinstitute.org/morpheus) with hierarchical clustering, sorted by one minus Pearson's correlation and clustered by rows. […]

IKKβ = IKKβ (Homo sapiens, UniProt O14920); experiment: Thermal shift assay; settings: BT503 1 μM, human podocytes
IKKβ, sequence (O14920 whole entry): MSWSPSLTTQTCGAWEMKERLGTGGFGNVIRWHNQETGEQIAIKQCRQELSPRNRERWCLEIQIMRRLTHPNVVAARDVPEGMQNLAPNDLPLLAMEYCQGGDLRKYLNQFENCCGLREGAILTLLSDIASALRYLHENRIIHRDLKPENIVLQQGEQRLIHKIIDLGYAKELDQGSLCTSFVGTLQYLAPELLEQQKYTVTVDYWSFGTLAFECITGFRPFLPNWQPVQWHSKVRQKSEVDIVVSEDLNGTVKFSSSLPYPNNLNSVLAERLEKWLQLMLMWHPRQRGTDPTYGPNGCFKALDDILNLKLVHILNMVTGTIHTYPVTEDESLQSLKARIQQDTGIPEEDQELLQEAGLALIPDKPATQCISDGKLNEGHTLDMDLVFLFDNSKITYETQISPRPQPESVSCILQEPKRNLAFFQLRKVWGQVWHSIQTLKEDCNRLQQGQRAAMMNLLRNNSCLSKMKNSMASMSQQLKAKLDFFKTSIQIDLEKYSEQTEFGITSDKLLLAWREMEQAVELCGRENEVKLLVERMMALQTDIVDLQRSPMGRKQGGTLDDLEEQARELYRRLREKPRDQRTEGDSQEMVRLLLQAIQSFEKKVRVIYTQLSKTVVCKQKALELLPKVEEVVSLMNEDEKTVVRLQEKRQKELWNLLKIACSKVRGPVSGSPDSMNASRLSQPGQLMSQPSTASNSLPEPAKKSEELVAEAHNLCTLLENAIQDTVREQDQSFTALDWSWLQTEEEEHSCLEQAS
Procedure: Each tube was treated at a range of temperatures (40° C. to 52° C.) for 3 minutes using Eppendorf Mastercycler gradient temperature setting. Protein was subsequently extracted from cells using freeze-thaw cycle, and IKKβ and β-actin were detected using western blot.

[2] = test system: KLF15 promoter with mutation in the GRE (pEZX-FR03hKLF5p-mutant podocytes); experiment: GR-mutant KLF15 reporter assay; type: cell-based, human; settings: as compared to DMSO
IKBKB^M96V mutant = IKBKB^M96V mutant (Homo sapiens, UniProt O14920, M96V)
IKBKB^M96V mutant, sequence (O14920 whole entry M96V): as the sequence (O14920 whole entry) above, with M96V counted along it
Procedure: After the kinase reaction, an equal volume of ADP-Go™ Reagent is added to both terminate the kinase reaction and deplete the remaining ATP. Subsequently, the Detection Reagent is added to simultaneously convert ADP to ATP and measure the concentrations of newly synthesized ATP using a luciferase/luciferin reaction. The light generated is measured using a 96-well plate reader SpectraMax M3 (Molecular Devices). Luminescence can be correlated to ADP concentrations by using an ATP-to-ADP conversion curve.

[3] = test system: KLF15 promoter (pEZX-FR03hKLF15p human podocytes); experiment: KLF15 reporter high-throughput screening assay in human podocytes (firefly/renilla luciferase); type: cell-based
Procedure: Briefly, these podocytes proliferate under permissive conditions (gamma interferon at 33° C.), but differentiate under nonpermissive conditions (37° C.).
The amplified fragment contains MluI and PmeI RE sites and was subcloned into the MluI and PmeI cloning site of the pEZX-FR03 Firefly luciferase (FLuc) and Renilla luciferase (Rluc) reporter cloning vector (GeneCopoeia) to generate pEZX-FR03hKLF15p. Following verification of the sequence by restriction and μsequencing, the pEZX-FR03hKLF15p construct (which contains a puromycin resistance cassette) was transfected into human podocytes followed by selection in puromycin-containing media for 2 weeks. Surviving podocytes clones were pooled together for further analysis.
The library of compounds from the National Cancer Institute (Approved Oncology Drugs Set VI; Natural Products Set III; Diversity Set V; and Mechanistic Diversity Set II) were added to a final concentration of 1 μM in 0.5% DMSO in the low FBS cell culture media (0.2% FBS) using liquid handling system PipetMax (Gilson). After 24 hours incubation at 37° C., the Luc-Pair™ Duo-Luciferase HT Assay Kit (GeneCopoeia LF015) were used and firefly and renilla luciferase activity was determined using the SpectraMax M3 (Molecular Devices). Positive controls were all-trans retinoic acid (atRA) (1 μM) and dexamethasone (DEX) (1 μM). Negative controls were DMSO and cell-free media.
To identify small molecule inducers of KLF15 expression in human podocytes, human podocytes were generated with a dual reporter, firefly luciferase directed at the KLF15 promoter region and renilla luciferase (pEZX-FR03hKLF15p). […] The positive controls were inducers of KLF15 expression, dexamethasone (DEX) and all-trans retinoic acid (atRA), and […] and cell-free wells served as negative controls.

FVB/n mice = experiment: LPS-induced proteinuric murine model; type: in vivo, mouse
Procedure: In the LPS-induced proteinuric model, all 8-week-old FVB/n mice were initially treated with LPS [intraperitoneal (IP), 10 μg/g, Sigma-Aldrich] or sterile normal saline (IP) at 0- and 24-hour time points as previously described (17). […] Urine was collected and mice were euthanized 48 hours post-LPS treatment.
Urine albumin was quantified by ELISA using a kit from Bethyl Laboratory Inc. Urine creatinine levels were measured in the same samples using the Creatinine Colorimetric Assay Kit (500701; Cayman Chemical) as per manufacturer's protocol.
Briefly, mice were perfused with PBS containing 2.5 mg/ml iron oxide and 1% BSA. At the end of perfusion, kidneys were removed, decapsulated, minced into 1 mm^3 pieces, and digested in PBS containing 1 mg/ml collagenase A. Digested tissue was subsequently passed through a 100 μm cell strainer and collected by centrifugation. The pellet was resuspended in 1 ml PBS and glomeruli were collected using a magnet. The purity of glomeruli was verified under microscopy. Total RNA was isolated from kidney glomeruli of mice using the RNeasy Kit (Qiagen, Germantown, MD).
Total RNA from cells was extracted by using TRIzol (Life Technologies). First-strand cDNA was prepared from total RNA (up to 1.25 μg) using the SuperScript™ IV VILO™ Master Mix (Life Technologies), and cDNA was amplified in triplicate using PowerUp™ SYBR™ Green Master Mix on an ABI QuantStudio3 (Applied Biosystems). Primers for human and mouse genes were designed using NCBI Primer-BLAST and validated for efficiency before application (Table 1). Data were normalized to housekeeping genes (GAPDH or ACTB) and presented as a fold increase compared with RNA isolated from the control group using the ΔΔCT method.
Transmission Electron Microscopy (TEM) was done in the Central Microscopy Imaging Center at Stony Brook Medicine. Briefly, after embedding the kidney tissues in epoxy resin, ultrathin sections were stained with uranyl acetate and lead citrate, then mounted on a copper grid, and photographed under a FEI BioTwin G2 Transmission Electron Microscope with AMT XR-60 CCD digital Camera (FEI).

Which results are given for CSc1ccc(NC(=O)Nc2ccc(C)nc2)cc1 [BT503]?
DEGs involved in NF-κB signaling (GSEA, heatmap) [1]: downregulation; IKKβ stability (thermal shift) (IKKβ): IKKβ stability was reduced in DMSO as compared to BT503 treatment; KLF15-mutant reporter activity [2]: induced KLF15 activity; IKKβ kinase inhibition in IKBKB^M96V mutant as compared to IKBKB^WT (IKBKB^M96V mutant): resistance to IKKβ kinase inhibition; KLF15 activity as compared to DEX-treated podocytes [3]: higher KLF15 activity; KLF15 activity under nonpermissive versus permissive conditions ([3]; 37 C vs 33 C): only induces KLF15 activity under nonpermissive (37 C) conditions; Glomerular Klf15 and Wilms Tumor 1 (Wt1) expression (FVB/n mice; LPS conditions, vs DMSO-treated mice): restored; albuminuria (FVB/n mice; LPS proteinuric murine model, concurrent treatment, vs DMSO): attenuated albuminuria; foot process effacement (podocyte injury) (FVB/n mice; LPS treatment): significantly restored
